In US20260069581A1, “METHODS AND COMPOSITIONS FOR CANCER THERAPY” (OHIO STATE INNOVATION FOUNDATION, priority 2020, published 2026):

Tests used:
[1] = test system: shRNA-stable Kasumi-1 and MOLM13 cells; experiment: CFU serial replating assay of shRNA-stable cells with KPT-9274; assay type: cell-based, human
From the text: FIGS. 2A-2M show show representative data for genetic depletion of HDAC8 or SIRT6 increases vulnerability of AML cell lines to KPT-9274 treatment. FIGS. 2A-2D show data for knockout efficiency of CDS- and 3′UTR-targeting shRNAs in MOLM13 and Kasumi-1 cells as assessed with Western blotting (FIGS. 2A, 2D) with GAPDH as a loading control. Densitometric quantification of protein band intensity is shown (n=2) in FIGS. 2B, 2E. FIGS. 2E-2H show representative data for depletion of HDAC8 or SIRT6 (as indicated in graphs) and sensitization of AML cell lines to KPT-9274 treatment. Dose-response curves of shRNA-stable MOLM13 and Kasumi-1 cells for 24-hour and 48-hour treatments are plotted. Cell viability was measured with MTS. […] Scrambled or gene-targeting shRNA-stable MOLM13 or Kasumi-1 cells were treated with IC20 dose of KPT-9274 for 48 hour and stained with Annexin/PI for flow cytometry analysis. Data are shown as mean±SEM of % population from duplicates. FIGS. 2K-2L show representative data that KPT-9274 attenuates AML self-renewal and induces myeloid differentiation in HDAC8 or SIRT6-depleted cells. Quantification of the number of colonies formed by shRNA-stable Kasumi-1 and MOLM13 cells in the presence or absence of KPT-9274 in CFU assays. Indicated number of cells were seeded into Methocult and colonies were counted and replated by a double-blind approach after 7 days. Results are shown as mean±SEM of duplicates. *p<0.05. **p<0.01. […] For each condition, images were randomly taken from 6-12 fields of view. Scale bar=50 μm.
Colony-forming unit (CFU) assays. Age-matched cryopreserved primary cells from bone marrow and apheresis of AML patients with various co-mutations and CD34^+ healthy bone marrow cells were acquired from Ohio State University Comprehensive Cancer Center Leukemia Tissue Bank. […] Formed colonies were counted blindly after 7-14 days and re-plated at 10,000 cells/well. The images of colonies were captured with Echo revolving microscope. The images of Giemsa staining of cytospin preparations were acquired by CX43 Olympus inverted microscope. […]

leukemia stem cells = conditions: caspase-dependent apoptosis, Ref. 28; cited from earlier work

Row | Structure (SMILES) | colony formation and long-term self-renewal ([1]; HDAC8 or SIRT6-depleted MOLM13 and Kasumi-1 cells) | cell differentiation (Giemsa staining of cytospin preparations) ([1]; KPT-9274 with depletion of HDAC8 or SIRT6, cells derived from CFU assays) | colony numbers vs vehicle control ([1]; scramble groups, sublethal doses of KPT-9274) | death of leukemia stem cells (leukemia stem cells)
1 | Nc1ccc(/C=C/C(=O)NCc2cc3cc(-c4ccc(C(=O)N5CCC(F)(F)CC5)cc4)cc(-c4ccc(F)cc4)c3o2)cn1 [KPT-9274, (E)-3-(6-aminopyridin-3-yl)-N-[[5-[4-(4,4-difluoropiperidine-1-carbonyl)phenyl]-7-(4-fluorophenyl)-1-benzofuran-2-yl]methyl]prop-2-enamide] | suppressed colony formation | cooperatively differentiated AML cells | comparable | –
2 | CC(C)[C@H](C(=O)Nc1ccc(C(=O)NO)cc1)c1ccccc1 [AR-42, (S)—N-Hydroxy-4-(3-methyl-2-phenylbutanamido)benzamide] | – | – | – | induce death of leukemia stem cells
